Test results from publication PMC6271870, “Study on the Synthesis, Biological Activity and Spectroscopy of Naphthalimide-Diamine Conjugates” (Molecules, 2014).

Experiments:
HepG2 cells = experiment: Cell cycle analysis by High Content Screening (PI staining); assay type: cell-based; conditions: HepG2, 20 μM, 48 h
Protocol: To reveal the cytotoxic mechanism of compound 7f, we ﬁrst examined its effects on the cell cycle perturbation. The DNA content analysis by High Content Screening (HCS) confirmed that 7f could induce HepG2 cell cycle perturbation (Figure 3).
Exponentially growing HepG2 cells were seeded in 96 well plates ([…]), cultured for 24 h and then treated with different concentrations of compound 7f for 48 h. After incubation for 48 h, cells were washed twice with ice-cold 10% PBS, fixed and permeabilized with ice-cold 70% ethanol at −20 °C overnight. The cells were treated with 50 μg/mL RNase A at room temperature for 30 min after washed with ice-cold PBS, and finally stained with 50 μg/mL propidium iodide (PI) in the dark at 4 °C for 30 min. The distribution of cell cycle phases with different DNA contents was read in image analysis system of high content screening living cells.

herring sperm DNA = experiment: Fluorescence quenching of compound by DNA (Stern-Volmer, binding constant, thermodynamics); conditions: 7f quenched by DNA
Description: The Stern–Volmer equation is the following: F0/F = 1+ KSVc = 1+ […] where F0 and F are the ﬂuorescence intensities in the absence and presence of quencher (DNA for compound 7f or compound 7f for DNA-EB, respectively), KSV is the Stern-Volmer quenching constant, [c] is the concentration of DNA (or compound 7f), Kq is the biomolecule quenching rate constant and Kq = KSV/τ0. τ0 is the average lifetime of the molecule without any quencher and the ﬂuorescence lifetime of the biopolymer is 10^−8 s. The Stern–Volmer plots of F0/F versus [c] at the three temperatures were shown in Figure 9 and Figure 10, and the calculated KSV and Kq values were presented in Table 2 and Table 3.
When small molecules bind independently to a set of equivalent sites in a macromolecule, the binding constant (Kb) can be determined by the following equation [40, 52]: log[1/c] = log [F/(F0 − F)] + logKb(3) where Kb denotes the binding constant for interaction of naphthalimide–DNA, and F0, F, [c] have the same meanings as in Equation (2).
There are several acting forces between a small organic molecule and biomacromolecules, such as hydrophobic force, hydrogen bond, van der Waals force, electrostatic interactions, etc.
Preparation of sample is the same as that of UV-Vis measurement. Fluorescence wavelengths and intensity areas of samples were measured at following conditions: EX = 345 nm, EM = 355~600 nm temperature: 298, 303 and 310 K.

[1] = test system: human normal hepatocyte QSG-7701; experiment: MTT assay, QSG-7701 cells; assay type: cell-based; conditions: QSG7701, aminoguanidine present, mean ± SD of three determinations, max 50 µM tested
Protocol: (§1) The cytotoxicities of the novel conjugates were assessed in vitro by the MTT assay in the presence of aminoguanidine (an inhibitor of amine oxidase) against three cell lines, human leukemia K562, cancer of colon HCT116 and human normal hepatocyte QSG-7701 [34]. […] Thus, compound 7f was selected for further investigation. Cell lines, K562, 7721 and HCT116 were obtained from American Type Culture Collection (ATCC, Shanghai, China). Cells were cultured in RPMI1640, supplemented with 10% heat-inactivated fetal calf serum (FCS), antibiotics (penicillin, 100 units/mL; streptomycin sulfate, 100 μg/mL) at 37 °C, in an atmosphere of 95% air and 5% CO2 under humidified conditions. Aminoguanidine (1 mM) was added as an inhibitor of amine oxidase derived from FCS and had no effect on the various parameters of the cell measured in this study. In addition, exponentially growing HCT116 or 7721 cells were seeded into 96-well plates at 5000 cells/well and allowed to attach overnight, and then 100 μL of MTT (1 mg/mL) was added. After incubation for 4 h at 37 °C, the MTT solution was removed and the remaining formazan crystals were dissolved with 150 μL DMSO in each well. The absorbance of each well was then read at 570 nm.

human leukemia K562 = experiment: MTT assay, K562 cells; assay type: cell-based; conditions: 48 h, aminoguanidine present, mean ± SD of three determinations, max 50 µM tested
Protocol: as §1, with “Chemosensitivity” for “In addition, exponentially growing HCT116 or 7721 cells were seeded into 96-well plates at 5000 cells/well and allowed to attach overnight, and then 100 μL of MTT (1 mg/mL)”, “assessed using the 3-(4,5-dimethylthiazol-2-yl)-2,5-diphenyltetrazolium bromide (MTT) assay. […]” for “added.”, “purple” for “MTT solution was removed and the remaining”, “crystals (i.e., a reduced form of MTT) generated from viable cells” for “crystals”, “by adding 100” for “with 150”, “10% sodium dodecyl sulphate (SDS)” for “DMSO”

cancer of colon HCT116 = experiment: MTT assay, HCT116 cells; assay type: cell-based; conditions: Homo sapiens, HCT-116, aminoguanidine present, mean ± SD of three determinations, max 50 µM tested
Protocol: as §1

Cl.Cl.NCCCCNCCCN1C(=O)c2cccc3cccc(c23)C1=O [Compound 7f, 2-[3-(4-Aminobutylamino)propyl]1H-benz-[de]isoquinoline-1,3(2H)-dione dihydrochloride]
cells in G2/M phase (HepG2 cells): 49.8% | cells in G0/G1 phase (HepG2 cells; control 52.6%): 29.7% | KSV (Stern-Volmer quenching constant) (herring sperm DNA; 298 K): 5567 L/mol | KSV (Stern-Volmer quenching constant) (herring sperm DNA; 303 K): 4789 L/mol | KSV (Stern-Volmer quenching constant) (herring sperm DNA; 310 K): 3651 L/mol | IC50 [1]: 19.7 ± 3.42 µM | IC50 (human leukemia K562): 18.9 ± 1.97 µM | IC50 (cancer of colon HCT116): 5.45 ± 1.71 µM
